Data from patent US11618738B2, “Compound and application thereof in treating inflammation or inflammation-related diseases” (SICHUAN CENTER FOR TRANSLATIONAL MEDICINE OF TRADITIONAL …, priority 2017, dated 2023).
Marks after values point to notes of the source that are not given here.

Tests used:
Assay type in all cases: in vivo
[1] = system: acute gouty arthritis in rats induced by sodium urate crystals; test: Foot swelling in rats with acute gouty arthritis induced by sodium urate crystals; conditions: for foot volume compared with the model group (in words): medium- and high-dose groups, 24 h and 48 h after injection of sodium urate crystals
Description: Injecting sodium urate crystals into the joint cavity to establish an acute gouty arthritis model. Its pathological and clinical manifestations are very similar. It is a classic method commonly used in animal experiments to study gouty arthritis. This experiment will explore the effects of UTLOH series drugs on animals with acute gouty arthritis induced by sodium urate.
SPF grade SD rats, half female and half male (200-220 g/mouse), were randomly grouped by weight. The drug was administered once a day, for 3 consecutive days. […] Rats in the normal group were injected with an equal volume of sterile saline to the back of the right ankle joint. The administration was continued after modeling, once a day for 3 consecutive days. The ankle joint and foot volume of the rats in each group were measured respectively before modeling and 2 h, 4 h, 8 h, 24 h and 48 h after modeling.

[2] = system: OA-induced hyperuricemia model mice; test: Serum UA in oxonic acid potassium salt-induced hyperuricemia model mice; conditions: for UA: serum, oxonic acid potassium salt 300 mg/kg i.p., mean ± SD
Description: Oxoxazine potassium salt can directly increase blood uric acid levels in animals. In this experiment, intraperitoneal injection of oxonic acid potassium salt was used to observe the uric acid-lowering effect of UTLOH series drugs.
(§1) SPF grade KM mice, half female and half male (18-22 g/mouse). After the animals were adaptively fed for 3 days, they were randomly grouped by body weight. It was administered once a day for 7 consecutive days by gavage. On the 7th day, 1 hour before the gavage administration, the mice were intraperitoneally injected with a dose of 300 mg/kg of oxonic acid potassium salt. After the administration, the eyeballs were removed to take blood, and the serum was separated for testing. After decapitation, the liver was taken, weighed, cut into pieces, added with saline, homogenized, and centrifuged. Operated according to the kit instructions to determine the blood uric acid (UA) level in each group of mice; determine the xanthine oxidase (XOD) activity in the supernatant of mouse liver homogenate.

xanthine oxidase (XOD) = target: T1, xanthine oxidase (XOD) (Mus musculus, UniProt Q00519); test: Liver XOD activity in OA-induced hyperuricemia model mice; conditions: for XOD(U/gprot): liver homogenate, mean ± SD
T1 construct: from tissue; host or cells: liver of KM mice (homogenate supernatant)
T1 sequence (Q00519 whole entry): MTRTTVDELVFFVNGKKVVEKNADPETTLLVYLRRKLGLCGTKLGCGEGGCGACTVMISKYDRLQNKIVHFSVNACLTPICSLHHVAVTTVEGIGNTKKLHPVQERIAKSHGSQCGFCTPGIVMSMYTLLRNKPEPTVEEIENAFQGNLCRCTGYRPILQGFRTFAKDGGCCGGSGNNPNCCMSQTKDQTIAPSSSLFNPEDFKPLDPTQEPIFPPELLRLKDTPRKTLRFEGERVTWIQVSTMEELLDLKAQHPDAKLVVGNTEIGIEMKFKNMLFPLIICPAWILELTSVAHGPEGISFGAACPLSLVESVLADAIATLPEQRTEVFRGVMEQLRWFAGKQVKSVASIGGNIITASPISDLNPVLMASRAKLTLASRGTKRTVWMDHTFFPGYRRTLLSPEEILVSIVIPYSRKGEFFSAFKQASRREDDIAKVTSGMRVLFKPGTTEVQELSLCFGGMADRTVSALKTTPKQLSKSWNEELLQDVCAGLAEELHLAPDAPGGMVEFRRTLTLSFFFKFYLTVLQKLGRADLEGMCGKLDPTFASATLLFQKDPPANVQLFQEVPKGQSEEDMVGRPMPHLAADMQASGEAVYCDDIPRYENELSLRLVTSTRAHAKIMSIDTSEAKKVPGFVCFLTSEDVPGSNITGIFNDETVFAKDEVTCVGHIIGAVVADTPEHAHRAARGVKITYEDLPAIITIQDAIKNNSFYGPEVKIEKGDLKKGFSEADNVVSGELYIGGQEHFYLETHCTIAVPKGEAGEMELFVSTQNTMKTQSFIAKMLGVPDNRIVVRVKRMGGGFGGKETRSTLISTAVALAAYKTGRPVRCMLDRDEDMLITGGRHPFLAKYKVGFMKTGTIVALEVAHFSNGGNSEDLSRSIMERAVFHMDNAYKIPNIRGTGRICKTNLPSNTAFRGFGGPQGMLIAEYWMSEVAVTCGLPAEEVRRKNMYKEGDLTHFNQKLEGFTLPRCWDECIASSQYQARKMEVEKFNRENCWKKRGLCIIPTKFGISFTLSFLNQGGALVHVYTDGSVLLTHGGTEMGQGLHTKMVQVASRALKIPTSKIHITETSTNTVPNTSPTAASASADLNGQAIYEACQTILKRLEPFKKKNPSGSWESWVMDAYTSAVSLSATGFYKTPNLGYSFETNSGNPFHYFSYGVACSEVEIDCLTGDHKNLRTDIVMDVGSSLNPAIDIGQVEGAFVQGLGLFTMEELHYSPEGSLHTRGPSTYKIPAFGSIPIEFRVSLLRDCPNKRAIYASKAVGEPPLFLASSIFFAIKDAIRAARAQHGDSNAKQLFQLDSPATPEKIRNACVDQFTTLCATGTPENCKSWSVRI
Description: as §1

[3] = 10 mg/kg once a day, 2 h after modeling, mean ± SD
[4] = 10 mg/kg once a day, 4 h after modeling, mean ± SD
[5] = 10 mg/kg once a day, 8 h after modeling, mean ± SD
[6] = 10 mg/kg once a day, 24 h after modeling, mean ± SD
[7] = 10 mg/kg once a day, 48 h after modeling, mean ± SD
[8] = 20 mg/kg once a day, 2 h after modeling, mean ± SD
[9] = 20 mg/kg once a day, 4 h after modeling, mean ± SD
[10] = 20 mg/kg once a day, 8 h after modeling, mean ± SD
[11] = 20 mg/kg once a day, 24 h after modeling, mean ± SD
[12] = 20 mg/kg once a day, 48 h after modeling, mean ± SD
[13] = 40 mg/kg once a day, 2 h after modeling, mean ± SD
[14] = 40 mg/kg once a day, 4 h after modeling, mean ± SD
[15] = 40 mg/kg once a day, 8 h after modeling, mean ± SD
[16] = 40 mg/kg once a day, 24 h after modeling, mean ± SD
[17] = 40 mg/kg once a day, 48 h after modeling, mean ± SD
[18] = 6.25 mg/kg gavage once a day for 7 days
[19] = 12.5 mg/kg gavage once a day for 7 days

Row | Compound | Foot swelling [1, 3] [mL] | Foot swelling [1, 4] [mL] | Foot swelling [1, 5] [mL] | Foot swelling [1, 6] [mL] | Foot swelling [1, 7] [mL] | Foot swelling [1, 8] [mL] | Foot swelling [1, 9] [mL] | Foot swelling [1, 10] [mL] | Foot swelling [1, 11] [mL] | Foot swelling [1, 13] [mL] | Foot swelling [1, 14] [mL] | Foot swelling [1, 15] [mL] | Foot swelling [1, 16] [mL] | Foot swelling [1, 17] [mL] | also measured
1 | Cc1cc(C(=O)Nc2ccccc2O)no1 [UTLOH-4a] | 0.33 ± 0.20 | 0.31 ± 0.10 | 0.29 ± 0.09 | 0.20 ± 0.11 | 0.03 ± 0.11 | 0.28 ± 0.13 | 0.3 ± 0.13 | 0.32 ± 0.09 | 0.21 ± 0.14 | 0.30 ± 0.13 | 0.36 ± 0.13 | 0.36 ± 0.09 | 0.19 ± 0.11 | 0.11 ± 0.09 | Foot swelling (ml) [1, 12]: 0.07 ± 13*^ ml; foot volume compared with the model group (in words) ([1]; low-): significantly reduce
2 | Cc1cc(C(=O)Nc2ccc(O)cc2O)no1 [UTLOH-4e] | 0.28 ± 0.09 | 0.34 ± 0.07 | 0.33 ± 0.11 | 0.22 ± 0.12 | 0.05 ± 0.07 | 0.18 ± 0.07 | 0.24 ± 0.06 | 0.19 ± 0.07 | 0.19 ± 0.12 | 0.20 ± 0.08 | 0.25 ± 0.05 | 0.19 ± 0.10 | 0.22 ± 0.07 | 0.09 ± 0.12 | UA [2, 18]: 50.07 ± 9.86 µmol/L; UA [2, 19]: 47.15 ± 13.48 µmol/L; level of uric acid in the serum of model mice (in words) ([2]; versus model group): significantly reduce; Foot swelling [1, 12]: 0.09 ± 0.08 mL; foot volume compared with the model group (in words) ([1]; 2 h, 4 h, 8 h): significantly reduce; XOD(U/gprot) (xanthine oxidase (XOD); [18]): 21.55 ± 2.00 U/gprot; XOD(U/gprot) (xanthine oxidase (XOD); [19]): 22.54 ± 3.98 U/gprot; liver XOD activity of model mice (in words) (xanthine oxidase (XOD); versus model group): significantly reduce
